What was measured:
HeLa cell membranes = test: Function as NO probe on cell membrane (NOC13 addition); type: cell-based; conditions: 7.5 μmol/L probe, PBS(+) pH 7.4, NOC13 100 μmol/L at 120 seconds and 1 mmol/L at 1,800 seconds, HeLa cells (FIG. 6)
Description: To 1 mL of an extracellular fluid (pH 7.4, PBS (+)) loaded with DAF-PIP-DPPE (7.5 μmol/L) was added NOC13 solution (500 μL) prepared before use.

[1] = Fluorescence time course of reaction with NO released from NOC13; conditions: 1.27 μmol/L in PBS(−), 37° C., NOC13 5, 50, 100, 500 μmol/L (FIG. 2)
Description: To a 1.27 μmol/L DAF-PIPA PBS(−) solution at 37° C. was added NOC13 as a sustained release-type NO releasing agent at concentrations of 5 μmol/L, 50 μmol/L, 100 μmol/L, and 500 μmol/L, respectively, and change in the reaction with NO over time was measured.

HeLa cells = test: Fluorescence intensity change of loaded cells on extracellular pH change; type: cell-based; conditions: extracellular fluid pH from 7.4 to 6.7 to 6.4, loaded cells, fluorescence microscope (FIG. 5)
Description: As a control experiment, a fluorescein ester derivative (fluorescein diacetate), which can penetrate cell membranes and undergo hydrolysis by cytoplasmic esterase to distribute fluorescein intracellularly, was loaded on the cells, then the cells were treated in the same manner.

In the case of `CCCCCCCCCCCCCCCC(=O)OC[C@H](COP(=O)(O)OCCNC(=O)C1CCN(C(=O)c2cc(N)c(N)cc2-c2c3ccc(=O)cc-3oc3cc(O)ccc23)CC1)OC(=O)CCCCCCCCCCCCCCC` [DAF-PIP-DPPE], the “fluorescence intensity change on cell membranes after NOC13” value (HeLa cell membranes) is reported as “Marked increase in the fluorescence intensity”.
With DAF-piperidinic Acid [DAF-PIPA] the “change in fluorescence intensity on reaction with NO” value [1] was “became larger in a NO concentration-dependent manner”.
For `CC(=O)Oc1ccc2c(c1)Oc1cc(OC(C)=O)ccc1C21OC(=O)c2ccccc21` [fluorescein diacetate], the “decrease in fluorescence intensity according to pH change of extracellular fluid” value (HeLa cells) was “no change in fluorescence intensity”.

From patent publication US20080281104A1, “Membrane-Anchoring Fluorescent Probe” (THE UNIVERSITY OF TOKYO, priority 2005, published 2008)
